Assay results as given in patent US6355799B1, “Substituted benzene compounds, process for their preparation, and herbicidal and defoliant compositions containing them” (ISK Americas Incorporated, priority 1997, dated 2002).

How the values were obtained:
Type in all cases: in vivo
[1] = tested on: ivyleaf morningglory (Ipomoea hederacea, IPOHE); assay: Pre-emerge test, greenhouse herbicide activity screening; conditions: rating scale 0-100, 14 days after application
Method in brief: (§1)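 Fourteen days after spraying, crop and weed injury was graded visually from 0, no effect, to 100, every plant dead. Test substances were dissolved in acetone and applied at 15–1000 g ai/ha with a flat-fan nozzle. Application was either pre-emergence, one day after sowing, or post-emergence at the 2–3 leaf stage.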

[2] = tested on: green foxtail (Setaria viridis, SETVI); assay: as above; conditions: rating scale 0-100, 14 days after application
Method in brief: as §1

[3] = tested on: johnsongrass (Sorghum halepense, SORHA); assay: as above; conditions: rating scale 0-100, 14 days after application
Method in brief: as §1

[4] = tested on: lambsquarters (Chenopodium album, CHEAL); assay: as above; conditions: rating scale 0-100, 14 days after application
Method in brief: as §1

[5] = tested on: sicklepod (Cassia obtusifolia, CASOB); assay: as above; conditions: rating scale 0-100, 14 days after application
Method in brief: as §1

[6] = tested on: barnyardgrass (Echinochloa crus-galli, ECHCG); assay: as above; conditions: rating scale 0-100, 14 days after application
Method in brief: as §1

[7] = tested on: large crabgrass (Digitaria sanguinalis, DIGSA); assay: as above; conditions: rating scale 0-100, 14 days after application
Method in brief: as §1

[8] = tested on: velvetleaf (Abutilon theophrasti, ABUTH); assay: as above; conditions: rating scale 0-100, 14 days after application
Method in brief: as §1

[9] = tested on: field corn (Zea mays L., var. Dekalb 535, CORN); assay: Post-emerge test, crop safety; conditions: rating scale 0-100 (0 no damage, 100 complete death), 14 days after application
Method in brief: as §1

[10] = tested on: upland rice (Oryza sp., var. Tebonnet, RICE); assay: Post-emerge test, crop safety; conditions: rating scale 0-100 (0 no damage, 100 complete death), 14 days after application
Method in brief: as §1

[11] = tested on: ivyleaf morningglory (Ipomoea hederacea, IPOHE); assay: Post-emerge test, greenhouse herbicide activity screening; conditions: rating scale 0-100 (0 no damage, 100 complete death), 14 days after application
Method in brief: as §1

[12] = tested on: green foxtail (Setaria viridis, SETVI); assay: as above; conditions: rating scale 0-100 (0 no damage, 100 complete death), 14 days after application
Method in brief: as §1

[13] = tested on: johnsongrass (Sorghum halepense, SORHA); assay: as above; conditions: rating scale 0-100 (0 no damage, 100 complete death), 14 days after application
Method in brief: as §1

[14] = tested on: lambsquarters (Chenopodium album, CHEAL); assay: as above; conditions: rating scale 0-100 (0 no damage, 100 complete death), 14 days after application
Method in brief: as §1

[15] = tested on: sicklepod (Cassia obtusifolia, CASOB); assay: as above; conditions: rating scale 0-100 (0 no damage, 100 complete death), 14 days after application
Method in brief: as §1

[16] = tested on: barnyardgrass (Echinochloa crus-galli, ECHCG); assay: as above; conditions: rating scale 0-100 (0 no damage, 100 complete death), 14 days after application
Method in brief: as §1

[17] = tested on: large crabgrass (Digitaria sanguinalis, DIGSA); assay: as above; conditions: rating scale 0-100 (0 no damage, 100 complete death), 14 days after application
Method in brief: as §1

[18] = tested on: velvetleaf (Abutilon theophrasti, ABUTH); assay: as above; conditions: rating scale 0-100 (0 no damage, 100 complete death), 14 days after application
Method in brief: as §1

[19] = tested on: redroot pigweed (Amaranthus retroflexus, AMARE); assay: as above; conditions: rating scale 0-100 (0 no damage, 100 complete death), 14 days after application
Method in brief: as §1

[20] = tested on: field corn (Zea mays L., var. Dekalb 535, CORN); assay: Pre-emerge test, crop safety; conditions: rating scale 0-100, 14 days after application
Method in brief: (§2)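 Rating: 0–100 visual injury, 14 DAA. Application: acetone, 187 l/ha, 15–1000 g ai/ha, flat-fan track sprayer with nozzle 40–45 cm above soil or canopy. Post-emerge runs used 0.25% v/v surfactant on 2–3 leaf plants.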

[21] = tested on: upland rice (Oryza sp., var. Tebonnet, RICE); assay: Pre-emerge test, crop safety; conditions: rating scale 0-100, 14 days after application
Method in brief: as §2

[22] = tested on: redroot pigweed (Amaranthus retroflexus, AMARE); assay: Pre-emerge test, greenhouse herbicide activity screening; conditions: rating scale 0-100, 14 days after application
Method in brief: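 Herbicidal damage is scored 0 (none) to 100 (complete plant death) two weeks after a simulated field spray. Rates span 15–1000 g ai/ha, delivered in acetone at 187 l/ha. For post-emergence treatments, plants have 2–3 leaves and the spray carries 0.25% v/v non-ionic surfactant.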

C#CCOC(=O)C(Cl)Cc1c(OC)c(Cl)cc(F)c1-n1c(=O)cc(C(F)(F)F)n(C)c1=O (single isomer, unassigned) [14-19]
100: Post-emerge Herbicidal Activity, phytotoxicity rating CHEAL ([14]; Rate 250 g ai/ha) | Post-emerge Herbicidal Activity, phytotoxicity rating ECHCG ([16]; Rate 63 g ai/ha) | Post-emerge Herbicidal Activity, phytotoxicity rating ECHCG ([16]; Rate 250 g ai/ha) | Post-emerge Herbicidal Activity, phytotoxicity rating DIGSA ([17]; Rate 63 g ai/ha) | Post-emerge Herbicidal Activity, phytotoxicity rating DIGSA ([17]; Rate 250 g ai/ha) | Post-emerge Herbicidal Activity, phytotoxicity rating ABUTH ([18]; Rate 250 g ai/ha) | Post-emerge Herbicidal Activity, phytotoxicity rating AMARE ([19]; Rate 250 g ai/ha)
50: Pre-emerge herbicidal activity, phytotoxicity rating ABUTH ([8]; 250 g ai/ha)
0: Pre-emerge herbicidal activity, phytotoxicity rating IPOHE ([1]; 63 g ai/ha) | Pre-emerge herbicidal activity, phytotoxicity rating IPOHE ([1]; 250 g ai/ha) | Pre-emerge herbicidal activity, phytotoxicity rating SETVI ([2]; 63 g ai/ha) | Pre-emerge herbicidal activity, phytotoxicity rating SETVI ([2]; 250 g ai/ha) | Pre-emerge herbicidal activity, phytotoxicity rating SORHA ([3]; 63 g ai/ha) | Pre-emerge herbicidal activity, phytotoxicity rating SORHA ([3]; 250 g ai/ha) | Pre-emerge herbicidal activity, phytotoxicity rating CHEAL ([4]; 63 g ai/ha) | Pre-emerge herbicidal activity, phytotoxicity rating CASOB ([5]; 63 g ai/ha) | Pre-emerge herbicidal activity, phytotoxicity rating CASOB ([5]; 250 g ai/ha) | Pre-emerge herbicidal activity, phytotoxicity rating ECHCG ([6]; 63 g ai/ha) | Pre-emerge herbicidal activity, phytotoxicity rating ECHCG ([6]; 250 g ai/ha) | Pre-emerge herbicidal activity, phytotoxicity rating DIGSA ([7]; 63 g ai/ha) | Pre-emerge herbicidal activity, phytotoxicity rating ABUTH ([8]; 63 g ai/ha) | Post-emerge phytotoxicity rating CORN (crop damage) ([9]; Rate 63 g ai/ha) | Post-emerge phytotoxicity rating RICE (crop damage) ([10]; Rate 63 g ai/ha) | Post-emerge Herbicidal Activity, phytotoxicity rating SETVI ([12]; Rate 63 g ai/ha) | Post-emerge Herbicidal Activity, phytotoxicity rating SORHA ([13]; Rate 63 g ai/ha) | Post-emerge Herbicidal Activity, phytotoxicity rating SORHA ([13]; Rate 250 g ai/ha) | Pre-emerge phytotoxicity rating, crop damage CORN ([20]; 63 g ai/ha) | Pre-emerge phytotoxicity rating, crop damage CORN ([20]; 250 g ai/ha) | Pre-emerge phytotoxicity rating, crop damage RICE ([21]; 63 g ai/ha) | Pre-emerge phytotoxicity rating, crop damage RICE ([21]; 250 g ai/ha) | Pre-emerge herbicidal activity, phytotoxicity rating AMARE ([22]; 63 g ai/ha)
60: Post-emerge Herbicidal Activity, phytotoxicity rating ABUTH ([18]; Rate 63 g ai/ha)
30: Post-emerge Herbicidal Activity, phytotoxicity rating IPOHE ([11]; Rate 63 g ai/ha) | Post-emerge Herbicidal Activity, phytotoxicity rating SETVI ([12]; Rate 250 g ai/ha)
80: Pre-emerge herbicidal activity, phytotoxicity rating CHEAL ([4]; 250 g ai/ha) | Pre-emerge herbicidal activity, phytotoxicity rating DIGSA ([7]; 250 g ai/ha)
20: Post-emerge phytotoxicity rating RICE (crop damage) ([10]; Rate 250 g ai/ha)
90: Post-emerge Herbicidal Activity, phytotoxicity rating IPOHE ([11]; Rate 250 g ai/ha) | Post-emerge Herbicidal Activity, phytotoxicity rating CHEAL ([14]; Rate 63 g ai/ha) | Post-emerge Herbicidal Activity, phytotoxicity rating AMARE ([19]; Rate 63 g ai/ha) | Pre-emerge herbicidal activity, phytotoxicity rating AMARE ([22]; 250 g ai/ha)
40: Post-emerge phytotoxicity rating CORN (crop damage) ([9]; Rate 250 g ai/ha) | Post-emerge Herbicidal Activity, phytotoxicity rating CASOB ([15]; Rate 63 g ai/ha)
70: Post-emerge Herbicidal Activity, phytotoxicity rating CASOB ([15]; Rate 250 g ai/ha)
